The record followed here is article PMC5931576, “Allosteric modulation of the farnesoid X receptor by a small molecule” (Scientific Reports, 2018).

One data set deals with T1, RXRα.
T1 construct: expressed in transfected cells; host or cells: HEK293T
Briefly: Gal4-DBD-RXRα-LBD hybrid reporter gene assay. It is filed as cell-based, human. The text has this: The Gal4-fusion receptor plasmids pFA-CMV-hPPARα-LBD[34], pFA-CMV-hPPARγ-LBD[34], pFA-CMV-hPPARδ-LBD[34], pFA-CMV-hLXRα-LBD[35], pFA-CMV-hLXRβ-LBD[35], pFA-CMV-hRXRα-LBD[36], pFA-CMV-hRXRβ-LBD[36], pFA-CMV-hRXRγ-LBD[36], pFA-CMV-hRARα-LBD[36], pFA-CMV-hRARβ-LBD[36], pFA-CMV-hRARγ-LBD[36], pFA-CMV-hVDR-LBD[36] and pFA-CMV-hCAR-LBD[36] coding for the hinge region and ligand binding domain (LBD) of the canonical isoform of the respective nuclear receptor have been reported previously. pFR-Luc (Stratagene) was used as reporter plasmid and pRL-SV40 (Promega) for normalization of transfection efficiency and cell growth.
HEK293T cells were grown in DMEM high glucose, supplemented with 10% FCS, sodium pyruvate (1 mM), penicillin (100 U/mL) and streptomycin (100 μg/mL) at 37 °C and 5% CO2. The day before transfection, HEK293T cells were seeded in 96-well plates (2.5·10^4 cells/well). Before transfection, medium was changed to Opti-MEM without supplements. Transient transfection was carried out using Lipofectamine LTX reagent (Invitrogen) according to the manufacturer’s protocol with pFR-Luc (Stratagene), pRL-SV40 (Promega) and pFA-CMV-hNR-LBD. […] Luminescence was measured with an Infinite M200 luminometer (Tecan Deutschland GmbH) or a Tecan Spark 10 M luminometer (Tecan). […]
On the technique in general: A reporter such as luciferase makes a cellular process visible.

Data set [1] can be described thus: Metabolism assay (liver microsomes). It is filed as in vitro ADME, Sprague−Dawley rats. The note with it: rat liver microsomes, 10 μM. The method, then: (§1) In vitro biological evaluation […]
MgCl2). After 5 min, the reaction was started by the addition of 13 μL of microsome mix from the liver of Sprague−Dawley rats (Invitrogen; 20 mg protein/mL in 0.1 M phosphate buffer) in a shaking water bath at 37 °C.
The reaction was stopped by addition of 250 μL of ice-cold methanol at 0, 15, 30 and 60 min. The samples were diluted with 250 μL of DMSO and centrifuged at 10000 g for 5 min at 4 °C. The supernatants were analyzed and test compound was quantified by HPLC: mobile phase: MeOH 83%/H2O 17%/formic acid 0.1%; flow-rate:
1 mL/min; stationary phase: MultoHigh Phenyl phase, 5 μm, 250 × 4, precolumn, phenyl, 5 μm, 20 × 4; detection wavelength: 330 and 254 nm; injection volume: 50 μL. Control samples were performed to check the stability of 4 or 16 in the reaction mixture: first control was without NADPH, which is needed for the enzymatic activity of the microsomes, second control was with inactivated microsomes (incubated for 20 min at 90 °C), third control was […]
quantified by an external calibration curve, where data are expressed as means ± SEM of single determinations […]
obtained in three independent experiments. […]
as mean percent of remaining compound ± SEM; n=3): 4: 0 min: 100 ± 0%, 15 min: 86 ± 3%, 30 min: 74 ± 1%,
Background: Microsomes from liver hold many membrane-bound enzymes, among them those of drug oxidation.

In the next data set the test system is HepG2 cells. As to the kind of experiment: WST-1 assay. The data set is classed as cell-based. As to conditions: 48 h (or 24 h). The method, then:
as §1
WST-1 assay (Roche Diagnostics International AG, Rotkreuz, Schweiz) was performed according to manufacturer’s protocol and as described previously. In brief, HepG2 cells were seeded in DMEM high glucose, supplemented with SP (1 mM), penicillin (100 U/mL), streptomycin (100 µg/mL) and 10% FCS in 96-well plates (3∙10^4 cells/well). After 24 h, medium was changed to DMEM high glucose, supplemented with penicillin (100 U/mL), streptomycin (100 µg/mL) and 1% charcoal stripped FCS and cells were incubated with 4 or 16 (final […]
and DMEM/1% DMSO as negative controls. After 48 h (or 24 h), WST reagent (Roche Diagnostics International AG) was added to each well according to manufacturer’s instructions. After 45 min incubation, absorption (450 nm/ reference: 620 nm) was determined with a Tecan Infinite M200 luminometer (Tecan Deutschland GmbH). Each experiment was repeated at least three times in triplicates. […]

Another data set has as its system T2, TGR5.
T2 construct: Eurofins (Brussels, Belgium)
As to the kind of experiment: TGR5 assay (Eurofins). As to conditions: 1 and 10 µM. It is filed as cell-based.

A further data set relates to SHP mRNA. As to the kind of experiment: FXR target gene quantification (qRT-PCR) in HepG2 cells: SHP. It is filed as cell-based. As to conditions: for SHP mRNA, mean fold activation compared to DMSO (0.1%): HepG2, 24 h. Background: Real-time PCR tracks product formation cycle by cycle.

For `CS(=O)(=O)O.CS(=O)(=O)O.CS(=O)(=O)O.CS(=O)(=O)O.Cc1ccc(NC(=O)c2ccc(Cl)cc2)cc1Nc1nccc(-c2cccnc2)n1.Cc1ccc(NC(=O)c2ccc(Cl)cc2)cc1Nc1nccc(-c2cccnc2)n1.O.O.O` [compound 16, 4-Chloro-N-(4-methyl-3-(4-(pyridin-3-yl)pyrimidin-2-ylamino)phenyl)benzamide dimesylate-sesquihydrate], in the data set with RXRα, the “RXR agonistic activity (activation of RXRα-Gal4 chimera receptor)” value is recorded as “did not activate”. Moreover, the “mean percent of remaining compound” value worked out at 100 ± 0% in data set [1] (0 min), 92 ± 1% in data set [1] (15 min), 88 ± 1% in data set [1] (30 min) and 86 ± 1% in data set [1] (60 min). Further, the “WST-1, mean percent of untreated control” value in the data set with HepG2 cells (HepG2, 0.1 µM) was found to be 113 ± 1%; with HepG2 cells (HepG2, 0.3 µM), 107 ± 7%; with HepG2 cells (HepG2, 1 µM) it was 112 ± 3%; in the data set with HepG2 cells (HepG2, 10 µM), 92 ± 2%; with HepG2 cells (HepG2, 50 µM) it was 87 ± 2%; in the data set with HepG2 cells (HepG2, 16 (0.3 µM) + 1 (50 µM)), 93 ± 7%. Also, in the data set on TGR5, the “TGR5 modulation (agonistic or antagonistic activity)” value is “does not modulate”. Besides, in the data set on SHP mRNA (HepG2, 16 co-incubated with 1), the “CDCA-induced SHP mRNA expression compared to 1 alone” value is “about 3 fold”. Besides, the results for the “SHP mRNA, mean fold activation compared to DMSO (0.1%)” value with SHP mRNA (0.3 µM alone), in the data set with SHP mRNA (16 (0.3 µM) + 1 (20 µM)) and in the data set with SHP mRNA (16 (0.3 µM) + 1 (50 µM)) were 2.32 ± 0.18, 1.64 ± 0.23 and 12.70 ± 1.04, respectively.
